Measured values published in PubChem BioAssay (NCI).
“And” between values parts separate entries of the source, which are not always exact repeats. Equal entries are not always repeated.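 A five-concentration, 48-hour dose response in 96-well plates underlies each endpoint, interpolated linearly between surrounding concentrations. TGI: concentration producing complete growth inhibition.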

Tests used:
Experiment in all cases: NCI-60 cell line screen, 48 h
SK-MEL-28 melanoma = test system: SK-MEL-28 melanoma
MOLT-4 leukemia = test system: MOLT-4 leukemia
NCI-H460 lung = test system: NCI-H460 lung
RXF 393 renal = test system: RXF 393 renal
OVCAR-4 ovarian = test system: OVCAR-4 ovarian
NCI/ADR-RES ovarian = test system: NCI/ADR-RES ovarian
LOX IMVI melanoma = test system: LOX IMVI melanoma
NCI-H522 lung = test system: NCI-H522 lung
SF-268 CNS = test system: SF-268 CNS
COLO 205 colon = test system: COLO 205 colon

Row | SMILES | TGI (SK-MEL-28 melanoma) | TGI (MOLT-4 leukemia) | TGI (NCI-H460 lung) | TGI (RXF 393 renal) | TGI (OVCAR-4 ovarian) | TGI (NCI/ADR-RES ovarian) | TGI (LOX IMVI melanoma) | TGI (NCI-H522 lung) | TGI (SF-268 CNS) | TGI (COLO 205 colon)
1 | COC(=O)CNCC1OC2OC(C)(C)OC2C1N=[N+]=[N-] (stereo not drawn) | > 100 µM | > 100 µM | > 100 µM | > 100 µM | > 100 µM | > 100 µM | > 100 µM | – | – | –
2 | Oc1ccccc1-n1nc2ccc3nonc3c2n1 | > 100 µM | > 100 µM | > 100 µM | – | > 100 µM | > 100 µM | > 100 µM | > 100 µM | > 100 µM | > 100 µM
3 | Cc1ccc(N2C(=O)C(=O)N(/N=C3\C(=O)Nc4ccccc43)C2=S)cc1 | > 100 µM | > 100 µM | > 100 µM | > 100 µM | – | > 100 µM | > 100 µM | > 100 µM | > 100 µM | > 100 µM
4 | Cc1ccc(-n2cc(-c3ccc(Cl)cc3)c(C#N)c2N)cc1 | 33.2 µM | – | 30.4 µM | 23.1 µM | 28.4 µM | 39.1 µM | 29.8 µM | 24.7 µM | 42.3 µM | 27.1 µM
5 | NCCCCCNOCCCN | > 100 µM | > 100 µM | > 100 µM | – | > 100 µM | > 100 µM | > 100 µM | > 100 µM | > 100 µM | > 100 µM
6 | O=C1c2c(ccc3c2CCCC3)CC1Cc1ccc2c(c1)CCCC2 (stereo not drawn) | > 100 µM | > 100 µM | > 100 µM | 78.5 µM | > 100 µM | – | > 100 µM | – | > 100 µM | > 100 µM
7 | Cc1[nH]c2ccccc2c1C1=CC(=O)N(c2ccccc2)C1=O | 20.5 µM | > 100 µM | 39.4 µM | 26.6 µM | – | > 100 µM | 18.3 µM | – | > 100 µM | > 100 µM
8 | C(=N/NC1=NCCN1)/c1c2ccccc2c(/C=N\NC2=NCCN2)c2ccccc12 | 1.01 µM and 1.08 µM and 0.685 µM | – | 0.335 µM and 0.33 µM and 0.159 µM | 0.829 µM and 2.08 µM and 0.596 µM | 0.4 µM and 0.584 µM and 1.1 µM | – | 0.27 µM and 0.332 µM and 1.75 µM | 0.214 µM and 0.262 µM and 0.387 µM | 0.558 µM and 0.722 µM and 0.747 µM | 0.366 µM and 0.609 µM and 1.41 µM
9 | COC1C(OC(N)=O)C(O)C(Oc2ccc3c(O)c(NC(=O)c4ccc(O)c(CC=C(C)C)c4)c(=O)oc3c2C)OC1(C)C (stereo not drawn) | > 100 µM | > 100 µM | > 100 µM | > 100 µM | – | > 100 µM | – | – | > 100 µM | > 100 µM
10 | Cc1ccc(F)c2c(=O)cc(-c3ccccc3)[nH]c12 | > 100 µM | > 100 µM | > 100 µM | > 100 µM | > 100 µM | – | > 100 µM | > 100 µM | > 100 µM | > 100 µM
11 | C=CCC1C2CCC(O[Si](C(C)C)(C(C)C)C(C)C)(C(C(=O)OC)C2)C1O (stereo not drawn) | > 100 µM | > 100 µM | > 100 µM | – | > 100 µM | > 100 µM | – | – | > 100 µM | > 100 µM
12 | CCOC(=O)NC(=S)NC(C)c1ccccc1 (stereo not drawn) | > 100 µM | > 100 µM | – | > 100 µM | > 100 µM | > 100 µM | – | > 100 µM | > 100 µM | > 100 µM
